Measured values: ChEMBL document CHEMBL3621068, “Synthesis and biological evaluation of a new class of quinazolinoneazoles as potential antimicrobial agents and their interactions with calf thymus DNA and human serum albumin” (Medchemcomm, 2015)
Values after ≈ are worked out from the molar mass of the structure shown. Active and inactive are the calls of the source. No cut-off for these calls is given here.

Assays:
Cyberlindnera jadinii = assay: Antifungal activity against Candida utilis ATCC 9950 after 24 hrs by micro broth dilution assay; type: functional; details: Williopsis jadinii, ATCC 9950, 24 h
Aspergillus flavus [1] = assay: Antifungal activity against Aspergillus flavus ATCC 204304 after 24 hrs by micro broth dilution assay; type: functional; details: ATCC 204304, 24 h
Saccharomyces cerevisiae = assay: Antifungal activity against Beer yeast ATCC 9763 after 24 hrs by micro broth dilution assay; type: functional; details: ATCC 9763, 24 h
Candida albicans = assay: Antifungal activity against Candida albicans ATCC 10231 after 24 hrs by micro broth dilution assay; type: functional; details: ATCC 10231, 24 h
Candida = assay: Antifungal activity against Candida mycoderma ATCC 9888 after 24 hrs by micro broth dilution assay; type: functional; details: ATCC 9888, 24 h
Micrococcus luteus = assay: Antibacterial activity against Micrococcus luteus ATCC 4698 after 24 hrs by micro broth dilution assay; type: functional; details: ATCC 4698, 24 h
Staphylococcus aureus [2] = assay: Antibacterial activity against methicillin-resistant Staphylococcus aureus N315 after 24 hrs by micro broth dilution assay; type: functional; details: N315, 24 h
Staphylococcus aureus [3] = assay: Antibacterial activity against Staphylococcus aureus ATCC 25923 after 24 hrs by micro broth dilution assay; type: functional; details: ATCC 25923, 24 h
Bacillus spizizenii [4] = assay: Antibacterial activity against Bacillus subtilis ATCC 6633 after 24 hrs by micro broth dilution assay; type: functional; details: ATCC 6633, 24 h
Pseudomonas aeruginosa = assay: Antibacterial activity against Pseudomonas aeruginosa ATCC 27853 a after 24 hrs by micro broth dilution assay; type: functional; details: ATCC 27853, 24 h
Escherichia coli = assay: Antibacterial activity against Escherichia coli DH52 after 24 hrs by micro broth dilution assay; type: functional; details: DH52, 24 h
Bacillus sp. = assay: Antibacterial activity against Bacillus proteus ATCC 13315 after 24 hrs by micro broth dilution assay; type: functional; details: Bacillus sp. (in: firmicutes), ATCC 13315, 24 h
[5] = Antibacterial activity against Eberthella typhosa ATCC 14028 after 24 hrs by micro broth dilution assay; type: functional; details: ATCC 14028, 24 h
Aspergillus flavus [6] = assay: Ratio of fluconazole MIC to compound MIC for Aspergillus flavus ATCC 204304; type: functional
Bacillus spizizenii [7] = assay: Ratio of chloromycin MIC to compound MIC for Bacillus subtilis ATCC 6633; type: functional
Calf thymus DNA [8] = assay: Binding affinity to calf thymus DNA by UV-visible absorption spectroscopy; type: nucleic-acid assay; details: Bos taurus
Calf thymus DNA [9] = assay: Competitive binding affinity to calf thymus DNA using neutral red up to 2.0 x 10^-5 mol/L by UV-visible absorption spectroscopy; type: nucleic-acid assay; details: Bos taurus
Albumin = Albumin (Homo sapiens, UniProt P02768); assay: Binding affinity to human serum albumin assessed as fluorescence quenching at 10^-5 mol/L by fluorescence spectroscopy analysis; type: ADME; details: isolated protein, 10 µM
Albumin, sequence (P02768 whole entry): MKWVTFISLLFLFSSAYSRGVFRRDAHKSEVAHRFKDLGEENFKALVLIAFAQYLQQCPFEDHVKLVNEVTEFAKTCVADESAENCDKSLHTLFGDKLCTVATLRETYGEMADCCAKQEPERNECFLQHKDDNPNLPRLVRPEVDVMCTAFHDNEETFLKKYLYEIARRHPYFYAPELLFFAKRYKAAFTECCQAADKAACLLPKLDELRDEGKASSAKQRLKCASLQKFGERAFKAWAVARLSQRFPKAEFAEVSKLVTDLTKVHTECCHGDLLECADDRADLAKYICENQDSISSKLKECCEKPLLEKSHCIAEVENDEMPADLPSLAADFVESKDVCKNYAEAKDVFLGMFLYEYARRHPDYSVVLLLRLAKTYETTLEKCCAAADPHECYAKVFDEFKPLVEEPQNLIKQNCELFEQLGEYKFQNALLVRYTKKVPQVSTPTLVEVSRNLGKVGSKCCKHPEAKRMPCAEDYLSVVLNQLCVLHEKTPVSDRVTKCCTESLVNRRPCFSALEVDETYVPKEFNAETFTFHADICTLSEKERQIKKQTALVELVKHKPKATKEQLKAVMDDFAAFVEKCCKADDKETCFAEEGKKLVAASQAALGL

Row | Compound | MIC (Cyberlindnera jadinii) | MIC (Aspergillus flavus [1]) | MIC (Saccharomyces cerevisiae) | MIC (Candida albicans) | MIC (Candida) | MIC (Micrococcus luteus) | MIC (Staphylococcus aureus [2]) | MIC (Staphylococcus aureus [3]) | MIC (Bacillus spizizenii [4]) | MIC (Pseudomonas aeruginosa) | MIC (Escherichia coli) | MIC (Bacillus sp.) | MIC [5] | Ratio (Aspergillus flavus [6]) | Ratio (Bacillus spizizenii [7]) | K (Calf thymus DNA [8]) | Activity (Calf thymus DNA [9]) | Kq (Albumin)
1 | Cc1ncc([N+](=O)[O-])n1CCCCCCn1cnc2cc(F)ccc2c1=O | 20 µM (≈ 7.47 µg/mL) | 10 µM (≈ 3.73 µg/mL) | 40 µM (≈ 14.9 µg/mL) | 20 µM (≈ 7.47 µg/mL) | 20 µM (≈ 7.47 µg/mL) | 40 µM (≈ 14.9 µg/mL) | 40 µM (≈ 14.9 µg/mL) | 40 µM (≈ 14.9 µg/mL) | 20 µM (≈ 7.47 µg/mL) | > 1370 µM | 40 µM (≈ 14.9 µg/mL) | 40 µM (≈ 14.9 µg/mL) | 20 µM (≈ 7.47 µg/mL) | 84 |  |  |  | 
2 | O=c1c2ccc(F)cc2ncn1CCCCCCCCCCn1cnc([N+](=O)[O-])c1 | 150 µM (≈ 62.3 µg/mL) | 150 µM (≈ 62.3 µg/mL) | 80 µM (≈ 33.2 µg/mL) | 40 µM (≈ 16.6 µg/mL) | 40 µM (≈ 16.6 µg/mL) | 40 µM (≈ 16.6 µg/mL) | 150 µM (≈ 62.3 µg/mL) | 310 µM (≈ 129 µg/mL) | 20 µM (≈ 8.31 µg/mL) | 80 µM (≈ 33.2 µg/mL) | 150 µM (≈ 62.3 µg/mL) | 80 µM (≈ 33.2 µg/mL) | 310 µM (≈ 129 µg/mL) |  | 5 |  |  | 
3 | O=c1c2ccc(F)cc2ncn1CCCCCCn1cnc([N+](=O)[O-])c1 | 360 µM (≈ 129 µg/mL) | 180 µM (≈ 64.7 µg/mL) | 90 µM (≈ 32.3 µg/mL) | 40 µM (≈ 14.4 µg/mL) | 40 µM (≈ 14.4 µg/mL) | 40 µM (≈ 14.4 µg/mL) | 180 µM (≈ 64.7 µg/mL) | 360 µM (≈ 129 µg/mL) | 20 µM (≈ 7.19 µg/mL) | 360 µM (≈ 129 µg/mL) | 180 µM (≈ 64.7 µg/mL) | 90 µM (≈ 32.3 µg/mL) | 360 µM (≈ 129 µg/mL) |  | 5 |  |  | 
4 | O=c1c2ccc(Cl)cc2ncn1CCCCCCBr | 740 µM (≈ 254 µg/mL) | > 1490 µM | 740 µM (≈ 254 µg/mL) | > 1490 µM | > 1490 µM | 370 µM (≈ 127 µg/mL) | 740 µM (≈ 254 µg/mL) | > 1490 µM | 1490 µM (≈ 512 µg/mL) | > 1490 µM | 1490 µM (≈ 512 µg/mL) | 740 µM (≈ 254 µg/mL) | > 1490 µM |  |  |  |  | 
5 | O=c1c2ccc(F)cc2ncn1CCCCCBr | 410 µM (≈ 128 µg/mL) | 820 µM (≈ 257 µg/mL) | 820 µM (≈ 257 µg/mL) | 820 µM (≈ 257 µg/mL) | > 1630 µM | 410 µM (≈ 128 µg/mL) | 820 µM (≈ 257 µg/mL) | > 1630 µM | 1630 µM (≈ 510 µg/mL) | > 1630 µM | 1630 µM (≈ 510 µg/mL) | 410 µM (≈ 128 µg/mL) | > 1630 µM |  |  |  |  | 
6 | O=c1c2ccc(Cl)cc2ncn1CCCCCCCCCCn1cnc([N+](=O)[O-])c1 | 150 µM (≈ 64.8 µg/mL) | 150 µM (≈ 64.8 µg/mL) | 70 µM (≈ 30.2 µg/mL) | 40 µM (≈ 17.3 µg/mL) | 40 µM (≈ 17.3 µg/mL) | 40 µM (≈ 17.3 µg/mL) | 150 µM (≈ 64.8 µg/mL) | 300 µM (≈ 130 µg/mL) | 40 µM (≈ 17.3 µg/mL) | 70 µM (≈ 30.2 µg/mL) | 150 µM (≈ 64.8 µg/mL) | 70 µM (≈ 30.2 µg/mL) | 300 µM (≈ 130 µg/mL) |  |  |  |  | 
7 | Cc1ncc([N+](=O)[O-])n1CCn1cnc2cc(F)ccc2c1=O | 30 µM (≈ 9.52 µg/mL) | 30 µM (≈ 9.52 µg/mL) | 30 µM (≈ 9.52 µg/mL) | 30 µM (≈ 9.52 µg/mL) | 30 µM (≈ 9.52 µg/mL) | 50 µM (≈ 15.9 µg/mL) | 30 µM (≈ 9.52 µg/mL) | 30 µM (≈ 9.52 µg/mL) | 30 µM (≈ 9.52 µg/mL) | > 1610 µM | 30 µM (≈ 9.52 µg/mL) | 50 µM (≈ 15.9 µg/mL) | 30 µM (≈ 9.52 µg/mL) |  |  | 1.41 ×10⁴ L/mol | Active | 0.1 ×10¹² L/mol/s
8 | O=c1c2ccc(F)cc2ncn1CCBr | 940 µM (≈ 255 µg/mL) | 1890 µM (≈ 512 µg/mL) | 940 µM (≈ 255 µg/mL) | 940 µM (≈ 255 µg/mL) | > 1890 µM | 470 µM (≈ 127 µg/mL) | 940 µM (≈ 255 µg/mL) | > 1890 µM | 1890 µM (≈ 512 µg/mL) | > 1890 µM | 1890 µM (≈ 512 µg/mL) | 470 µM (≈ 127 µg/mL) | > 1890 µM |  |  |  |  | 
9 | O=c1c2ccc(Cl)cc2ncn1CCn1ccnc1 | 470 µM (≈ 129 µg/mL) | 930 µM (≈ 255 µg/mL) | 930 µM (≈ 255 µg/mL) | 930 µM (≈ 255 µg/mL) | > 1860 µM | 470 µM (≈ 129 µg/mL) | 930 µM (≈ 255 µg/mL) | > 1860 µM | > 1860 µM | 930 µM (≈ 255 µg/mL) | 1860 µM (≈ 511 µg/mL) | 1860 µM (≈ 511 µg/mL) | > 1860 µM |  |  |  |  | 
10 | O=c1c2ccc(F)cc2ncn1CCCCCn1cnc([N+](=O)[O-])c1 | 370 µM (≈ 128 µg/mL) | 740 µM (≈ 256 µg/mL) | 90 µM (≈ 31.1 µg/mL) | 90 µM (≈ 31.1 µg/mL) | 190 µM (≈ 65.6 µg/mL) | 50 µM (≈ 17.3 µg/mL) | 190 µM (≈ 65.6 µg/mL) | 190 µM (≈ 65.6 µg/mL) | 20 µM (≈ 6.91 µg/mL) | 370 µM (≈ 128 µg/mL) | 370 µM (≈ 128 µg/mL) | 370 µM (≈ 128 µg/mL) | 370 µM (≈ 128 µg/mL) |  | 5 |  |  | 
11 | Cc1ncc([N+](=O)[O-])n1CCCCn1cnc2cc(Cl)ccc2c1=O | 20 µM (≈ 7.24 µg/mL) | 40 µM (≈ 14.5 µg/mL) | 40 µM (≈ 14.5 µg/mL) | 20 µM (≈ 7.24 µg/mL) | 40 µM (≈ 14.5 µg/mL) | 40 µM (≈ 14.5 µg/mL) | 20 µM (≈ 7.24 µg/mL) | 40 µM (≈ 14.5 µg/mL) | 40 µM (≈ 14.5 µg/mL) | > 1420 µM | 40 µM (≈ 14.5 µg/mL) | 20 µM (≈ 7.24 µg/mL) | 20 µM (≈ 7.24 µg/mL) |  |  |  |  | 
12 | CCn1cc(C(=O)O)c(=O)c2cc(F)c(N3CCNCC3)cc21 [NORFLOXACIN] | > 1600 µM | > 1600 µM | > 1600 µM | > 1600 µM | > 1600 µM | 10 µM (≈ 3.19 µg/mL) | 30 µM (≈ 9.58 µg/mL) | 10 µM (≈ 3.19 µg/mL) | 10 µM (≈ 3.19 µg/mL) | 10 µM (≈ 3.19 µg/mL) | 50 µM (≈ 16 µg/mL) | 10 µM (≈ 3.19 µg/mL) | 10 µM (≈ 3.19 µg/mL) |  |  |  |  | 
